This test deals with experimental ulcer model (Shay). Put plainly: Anti-ulcer activity in experimental ulcer model (Shay). The class given is in vivo, Wistar strain male rats. The method, boiled down: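 Wistar male rats, 8 weeks old, 5 per group, fasted 48 h, pylorus ligated under ether (Shay method); compound in 0.5% CMC/0.1% Tween 80 given id or ip, vehicle to controls. Stomach removed 8 h later; ulcers scored, gastric juice volume, acidity (alkali titration), pepsin (haemoglobin substrate) expressed as % inhibition versus control mean.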

The text below walks through data of patent US4822791A, “Pharmaceutical compositions of-2,2-1,1-[bis-2,2'-(3,1-benzoxazin-4-one)9 ethylenes” (priority 1984, dated 1989).

SMILES strings stand for the structures.

For the compound `O=C(Nc1ccccc1C(=O)O)C(=Cc1ccccc1)C(=O)Nc1ccccc1C(=O)O` [Compound 11, 2,2'-[(1,3-dioxo-2-phenylmethylene-1,3-propanediyl)diimino]bisbenzoic acid], for the setting “id 100 mg/kg”, the “Inhibition % Gastric Acidity” value was determined as 4.7%, the “Inhibition % secretion amount of gastric juice” value amounted to 0% and the “Inhibition % total pepsin titer” value was determined as 0%. Besides, where the note is “id 200 mg/kg”, the “Inhibition % Gastric Acidity” value amounted to 16.5%, the “Inhibition % secretion amount of gastric juice” value is listed as 20.1% and the “Inhibition % total pepsin titer” value came out at 9.1%.
